From paper PMC4411898, “Impact of kinesin Eg5 inhibition by 3,4-dihydropyrimidin-2(1H)-one derivatives on various breast cancer cell features” (BMC Cancer, 2015)

Experiments:
Format in all cases: cell-based, human
MCF-7 cells [1] = assay: MTT cell viability assay, MCF-7; settings: for IC50: 72 h treatment, MTT, read-out: IC50 MCF-7; for Effect on cell viability, MCF-7: all concentrations tested 100 μM – 1.00 mM, 72 h
Protocol: (§1) Absorbance readings were measured by a spectrophotometer. Cell viability was normalized to control (vehicle only).

MDA-MB-231 cells [2] = assay: MTT cell viability assay, MDA-MB-231; settings: for IC50: 72 h treatment, MTT, read-out: IC50 MDA-MB-231; for Effect on cell viability, MDA-MB-231: all concentrations tested 100 μM – 1.00 mM, 72 h
Protocol: as §1

MCF-7 cells [3] = assay: Apoptosis and necrosis assay (Annexin-V/PI flow cytometry), MCF-7; settings: 72 h; 4m 1.0 mM, 4bt 0.8 mM, 4p 0.4 mM, 4bc 1.0 mM, 4x 0.8 mM
Protocol: For proliferation assays, cells were treated with IC50 concentrations of each compound. Adherent and floating cells were harvested at the same tube and pelleted by centrifugation at 300 g for 5 minutes and stained. Data acquisition of these two fractions put together was performed on a FACSCalibur flow cytometer using CellQuest software and analysed using the FloJo Software. Untreated control cells and DHPMs-treated for 72 h cell samples were stained with Annexin-V-FITC or Annexin-V-Alexa Fluor® 680 and propidium iodide according to the manufacturer’s instructions.

MCF-7 cells [4] = assay: CD44+/CD24- expression analysis, MCF-7; settings: 24 h; for CD44-/CD24- subpopulation, MCF-7 (mean ± SEM): 4m 1.0 mM, 4bt 0.8 mM, 4p 0.4 mM, 4bc 1.0 mM, 4x 0.8 mM, monastrol 1.0 mM; for CD44+/CD24+ subpopulation, MCF-7 (mean ± SEM) / CD44-/CD24+ subpopulation, MCF-7 (mean ± SEM) / CD44+/CD24- subpopulation, MCF-7 (mean ± SEM): concentrations as E28; for CD44+/CD24- subpopulation, MCF-7 (mean ± SEM): control 0.38 ± 0.18
Protocol: (§2) For proliferation assays, cells were treated with IC50 concentrations of each compound. Adherent and floating cells were harvested at the same tube and pelleted by centrifugation at 300 g for 5 minutes and stained. Data acquisition of these two fractions put together was performed on a FACSCalibur flow cytometer using CellQuest software and analysed using the FloJo Software. Expression level of CD44 and CD24 in treated and control MCF-7 or MDA-MB-231 cells was measured after 24 h of treatment.

MDA-MB-231 cells [5] = assay: CD44+/CD24- expression analysis, MDA-MB-231; settings: 24 h; for CD44-/CD24- subpopulation, MDA-MB-231 (mean ± SEM): 4m 1.0 mM, 4bt 0.8 mM, 4p 0.4 mM, 4bc 1.0 mM, 4x 0.8 mM, monastrol 1.0 mM; for CD44-/CD24+ subpopulation, MDA-MB-231 (mean ± SEM) / CD44+/CD24+ subpopulation, MDA-MB-231 (mean ± SEM) / CD44+/CD24- subpopulation, MDA-MB-231 (mean ± SEM): concentrations as E32; for CD44+/CD24+ subpopulation, MDA-MB-231 (mean ± SEM): control 1.507 ± 0.47; for CD44+/CD24- subpopulation, MDA-MB-231 (mean ± SEM): untreated control 98.45 ± 0.47
Protocol: as §2

MCF-7 cells [6] = assay: Cell cycle analysis (PI), MCF-7; settings: 4m 1 mM, 4bt 0.8 mM, 4p 0.4 mM, 4bc 1.0 mM, 4x 0.8 mM
Protocol: For proliferation assays, cells were treated with IC50 concentrations of each compound. Adherent and floating cells were harvested at the same tube and pelleted by centrifugation at 300 g for 5 minutes and stained. Data acquisition of these two fractions put together was performed on a FACSCalibur flow cytometer using CellQuest software and analysed using the FloJo Software. Control and DHPM-treated cells were harvested at 24, 48 and 72 h, resuspended in ice-cold PBS and fixed with 70% ethanol on ice. Cells were then washed with PBS, harvested and incubated with propidium iodide solution (0.1% Triton X-100, 10 μg/mL propidium iodide, 100 μg/mL DNase free RNase) for 10 min at 37°C. For analysis of cell populations in each cell cycle phase, the sub-G1 picks were excluded and the plots were generated by cell cycle platform data analysis by the FlowJo Software.

MCF-7 cells [7] = assay: CFSE proliferation assay, MCF-7; settings: 72 h, IC50 concentration of each compound
Protocol: (§3) For proliferation assays, cells were treated with IC50 concentrations of each compound. Adherent and floating cells were harvested at the same tube and pelleted by centrifugation at 300 g for 5 minutes and stained. Data acquisition of these two fractions put together was performed on a FACSCalibur flow cytometer using CellQuest software and analysed using the FloJo Software. […] After adhesion, cells were treated with DHPMs or maintained in culture medium only (control) for 72 h. The percentage of proliferative cells was calculated based on the CFSE fluorescence profile analysis of the tested samples compared to that of the fixed undivided control cells (treated with 10 μM of colchicine) using the FlowJo software.

MDA-MB-231 cells [8] = assay: CFSE proliferation assay, MDA-MB-231; settings: 72 h, IC50 concentration of each compound
Protocol: as §3

HUVEC cells = assay: HUVEC tube formation assay; settings: 11 h; 30 μM, IC50 or 300 μM, mainly 300 μM
Protocol: The anti-angiogenic potential of DHPMs was tested using an in vitro Angiogenesis Assay Kit according to the manufacturer’s instructions. […] These plates were incubated for 11 hours at 37°C, in 5% CO2. Wells were subsequently photographed using an inverted light microscope at 20x magnification and tube formation analyzed. Seven fields per group of 3 independent experiments were quantified by pattern recognition according to manufacturer’s instructions.

MCF-7 cells [9] = assay: DAPI staining and transmission electron microscopy analysis; settings: MCF-7, 4p 0.4 mM, 24 h (DAPI) or 48 h (TEM)
Protocol: Aliquots of 8 × 10^5 MCF-7 cells were seeded in 12-well plates and ultra-structural analysis performed on controls or after 48 h of treatment with 4p (0.4 mM). Cells were washed twice with PBS and fixed overnight with glutaraldehyde (2.5%) at 4°C. Cells were subsequently washed with 0.1 M sodium cacodylate buffer (pH 7.2) and post-fixed in 1% osmium tetroxide and 0.8% potassium ferricyanide (10 mM CaCl2 in 0.2 M sodium cacodylate buffer). Samples were washed twice with 0.1 M sodium cacodylate buffer (pH 7.2) and in-block staining was performed for 16 h with 0.5% uranyl acetate at 4°C. Cells were dehydrated in a graded acetone series (50-100%) and embedded in Spurr resin.
Cells were analyzed under a laser scanning confocal microscope. B, MCF-7 cells control or treated with 4p (0.4 mM) for 24 h had their nucleus stained with DAPI (left panels) or were processed and analyzed by Transmission Electron Microscopy after exposure to 4p (0.4 mM) for 48 h (right panels).

| Structure (SMILES) | IC50 (MCF-7 cells [1]) [µM] | Effect on cell viability, MCF-7 (MCF-7 cells [1]) | IC50 (MDA-MB-231 cells [2]) [µM] | Effect on cell viability, MDA-MB-231 (MDA-MB-231 cells [2]) | Cell death by apoptosis, % of MCF-7 cell population (MCF-7 cells [3]) | CD44-/CD24- subpopulation, MCF-7 (mean ± SEM) (MCF-7 cells [4]) [%] | CD44+/CD24+ subpopulation, MCF-7 (mean ± SEM) (MCF-7 cells [4]) [%] | CD44-/CD24+ subpopulation, MCF-7 (mean ± SEM) (MCF-7 cells [4]) [%] | CD44+/CD24- subpopulation, MCF-7 (mean ± SEM) (MCF-7 cells [4]) [%] | CD44-/CD24- subpopulation, MDA-MB-231 (mean ± SEM) (MDA-MB-231 cells [5]) [%] | CD44-/CD24+ subpopulation, MDA-MB-231 (mean ± SEM) (MDA-MB-231 cells [5]) [%] | CD44+/CD24+ subpopulation, MDA-MB-231 (mean ± SEM) (MDA-MB-231 cells [5]) [%] | CD44+/CD24- subpopulation, MDA-MB-231 (mean ± SEM) (MDA-MB-231 cells [5]) [%] | Cell cycle effect, MCF-7, 48 h (MCF-7 cells [6]) | Inhibition of cell proliferation, MCF-7 (MCF-7 cells [7]) | Inhibition of cell proliferation, MDA-MB-231 (MDA-MB-231 cells [8]) | HUVEC tube formation (pattern recognition / morphology) (HUVEC cells) | Cell phenotype by DAPI staining and TEM (MCF-7 cells [9]) |
| --- | --- | --- | --- | --- | --- | --- | --- | --- | --- | --- | --- | --- | --- | --- | --- | --- | --- | --- |
| CC(=O)C1=C(C)NC(=O)NC1c1ccccc1[N+](=O)[O-] (centres unmarked) [Compound 4x] | 276 | significant decrease in cell viability | 237 | significant decrease in cell viability | less pronounced manner | 2.45 ± 0.52 | 35.11 ± 19.33 | 61.35 ± 20.83 | 1.065 ± 0.97 | 0.01 ± 0.003 | 0.020 ± 0.0200 | 6.08 ± 2.10 | 93.88 ± 2.12 | cell cycle arrest at G2/M | – | – | – | – |
| CCOC(=O)C1=C(C)NC(=S)NC1c1ccccc1O (centres unmarked) [Compound 4p] | 87.5 | significant decrease in cell viability | 68.4 | significant decrease in cell viability | less pronounced manner | 2.83 ± 0.59 | 30.40 ± 9.78 | 66.42 ± 10.57 | 0.33 ± 0.20 | 0.02 ± 0.009 | 0.003 ± 0.003 | 5.507 ± 1.13 | 94.45 ± 1.13 | cell cycle arrest at G2/M | Approximately 50% | Approximately 50% | more pronounced anti-angiogenic morphological aspect | mitotic catastrophe phenotype |
